Experimental data as given in ChEMBL document CHEMBL5291721, “A preclinical secondary pharmacology resource illuminates target-adverse drug reaction associations of marketed drugs” (Nat Commun, 2023).

Tests used:
Progesterone receptor = target: T1, Progesterone receptor (Homo sapiens, UniProt P06401)
T1 sequence (P06401 whole entry): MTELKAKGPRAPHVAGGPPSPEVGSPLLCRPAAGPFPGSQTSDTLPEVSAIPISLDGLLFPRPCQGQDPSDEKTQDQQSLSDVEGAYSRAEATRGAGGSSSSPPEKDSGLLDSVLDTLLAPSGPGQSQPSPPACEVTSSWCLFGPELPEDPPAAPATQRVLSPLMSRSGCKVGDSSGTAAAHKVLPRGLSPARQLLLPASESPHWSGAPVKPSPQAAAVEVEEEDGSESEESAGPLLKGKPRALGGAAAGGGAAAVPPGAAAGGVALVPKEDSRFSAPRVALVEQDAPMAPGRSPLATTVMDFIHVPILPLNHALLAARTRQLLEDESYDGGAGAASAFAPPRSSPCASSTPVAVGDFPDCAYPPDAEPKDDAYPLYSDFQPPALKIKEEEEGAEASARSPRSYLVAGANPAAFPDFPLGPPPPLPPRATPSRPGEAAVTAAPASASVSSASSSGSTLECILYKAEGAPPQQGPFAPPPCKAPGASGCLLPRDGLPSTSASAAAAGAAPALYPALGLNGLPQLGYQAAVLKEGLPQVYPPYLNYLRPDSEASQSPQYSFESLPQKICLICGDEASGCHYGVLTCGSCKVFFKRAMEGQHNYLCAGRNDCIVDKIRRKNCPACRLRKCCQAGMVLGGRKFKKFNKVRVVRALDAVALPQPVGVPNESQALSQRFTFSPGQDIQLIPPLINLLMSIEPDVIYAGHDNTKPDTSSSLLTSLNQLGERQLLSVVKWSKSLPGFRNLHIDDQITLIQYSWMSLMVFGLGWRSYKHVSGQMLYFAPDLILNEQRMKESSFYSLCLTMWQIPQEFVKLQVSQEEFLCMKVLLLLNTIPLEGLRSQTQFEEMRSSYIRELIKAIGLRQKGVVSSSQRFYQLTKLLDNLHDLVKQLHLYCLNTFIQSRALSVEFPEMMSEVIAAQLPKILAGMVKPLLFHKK

[1] = target: T2, Peroxisome proliferator-activated receptor gamma (Homo sapiens, UniProt P37231); assay type: functional
T2 sequence (P37231 whole entry): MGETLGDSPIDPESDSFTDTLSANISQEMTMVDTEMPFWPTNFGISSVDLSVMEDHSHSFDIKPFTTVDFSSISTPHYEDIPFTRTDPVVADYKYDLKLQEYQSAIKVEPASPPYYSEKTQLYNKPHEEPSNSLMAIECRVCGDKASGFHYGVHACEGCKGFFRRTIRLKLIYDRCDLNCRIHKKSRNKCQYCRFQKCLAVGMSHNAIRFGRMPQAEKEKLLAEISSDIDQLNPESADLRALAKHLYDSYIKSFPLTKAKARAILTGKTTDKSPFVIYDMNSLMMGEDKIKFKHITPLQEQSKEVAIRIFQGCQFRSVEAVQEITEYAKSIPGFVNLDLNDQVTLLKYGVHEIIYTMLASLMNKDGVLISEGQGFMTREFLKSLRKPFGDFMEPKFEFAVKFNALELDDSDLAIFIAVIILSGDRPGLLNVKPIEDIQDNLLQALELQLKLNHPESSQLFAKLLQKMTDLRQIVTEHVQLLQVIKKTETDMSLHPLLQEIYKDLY

B1 bradykinin receptor = target: T3, B1 bradykinin receptor (Homo sapiens, UniProt P46663)
T3 sequence (P46663 whole entry): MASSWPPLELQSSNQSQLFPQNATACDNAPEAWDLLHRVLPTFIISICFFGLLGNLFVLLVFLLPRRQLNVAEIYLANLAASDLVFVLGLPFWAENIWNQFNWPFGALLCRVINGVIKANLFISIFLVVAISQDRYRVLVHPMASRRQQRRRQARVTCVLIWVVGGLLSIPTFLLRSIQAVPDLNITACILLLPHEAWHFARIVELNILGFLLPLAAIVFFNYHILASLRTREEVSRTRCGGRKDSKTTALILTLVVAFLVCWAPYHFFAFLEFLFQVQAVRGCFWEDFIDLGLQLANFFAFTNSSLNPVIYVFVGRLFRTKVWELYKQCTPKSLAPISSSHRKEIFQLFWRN

Glucagon receptor = Glucagon receptor (Homo sapiens, UniProt P47871)
[2] = target: Neurotensin receptor type 1 (Homo sapiens, UniProt P30989)
[3] = target: T4, Neuropeptide Y receptor type 2 (Homo sapiens, UniProt P49146)
T4 sequence (P49146 whole entry): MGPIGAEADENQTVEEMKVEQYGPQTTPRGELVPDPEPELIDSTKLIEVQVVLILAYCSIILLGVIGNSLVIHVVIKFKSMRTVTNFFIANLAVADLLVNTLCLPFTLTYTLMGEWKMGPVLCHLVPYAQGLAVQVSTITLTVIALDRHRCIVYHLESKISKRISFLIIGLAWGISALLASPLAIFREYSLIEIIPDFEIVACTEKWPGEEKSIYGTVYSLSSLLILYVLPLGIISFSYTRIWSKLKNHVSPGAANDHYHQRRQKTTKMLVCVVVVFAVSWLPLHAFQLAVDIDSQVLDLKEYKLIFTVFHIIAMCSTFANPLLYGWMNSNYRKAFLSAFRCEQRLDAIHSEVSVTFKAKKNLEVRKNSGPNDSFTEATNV

[4] = target: Gamma-aminobutyric acid receptor subunit alpha-1/alpha-2/beta-2/gamma-2 (Homo sapiens, UniProt P14867+P18507+P47869+P47870); assay type: functional, cell-based
Histamine H2 receptor = Histamine H2 receptor (Homo sapiens, UniProt P25021)
[5] = target: T5, Alpha-1A adrenergic receptor (Homo sapiens, UniProt P35348)
T5 sequence (P35348 whole entry): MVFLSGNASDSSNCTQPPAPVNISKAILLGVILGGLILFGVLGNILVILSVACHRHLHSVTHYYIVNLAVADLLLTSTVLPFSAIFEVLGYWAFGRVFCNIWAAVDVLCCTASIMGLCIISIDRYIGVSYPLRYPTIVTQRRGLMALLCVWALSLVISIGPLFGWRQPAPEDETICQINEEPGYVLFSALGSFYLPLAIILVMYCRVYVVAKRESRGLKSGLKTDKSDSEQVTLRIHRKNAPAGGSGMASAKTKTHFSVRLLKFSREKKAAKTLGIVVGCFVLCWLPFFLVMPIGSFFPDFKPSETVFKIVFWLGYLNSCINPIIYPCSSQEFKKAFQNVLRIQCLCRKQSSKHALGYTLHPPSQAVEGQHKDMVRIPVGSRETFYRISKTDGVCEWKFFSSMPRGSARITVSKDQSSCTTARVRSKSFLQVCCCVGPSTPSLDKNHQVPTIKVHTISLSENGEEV
Note: assay procedure not described here.

Gamma-aminobutyric acid receptor subunit alpha-1/alpha-2/beta-2/gamma-2, sequence (P14867 whole entry): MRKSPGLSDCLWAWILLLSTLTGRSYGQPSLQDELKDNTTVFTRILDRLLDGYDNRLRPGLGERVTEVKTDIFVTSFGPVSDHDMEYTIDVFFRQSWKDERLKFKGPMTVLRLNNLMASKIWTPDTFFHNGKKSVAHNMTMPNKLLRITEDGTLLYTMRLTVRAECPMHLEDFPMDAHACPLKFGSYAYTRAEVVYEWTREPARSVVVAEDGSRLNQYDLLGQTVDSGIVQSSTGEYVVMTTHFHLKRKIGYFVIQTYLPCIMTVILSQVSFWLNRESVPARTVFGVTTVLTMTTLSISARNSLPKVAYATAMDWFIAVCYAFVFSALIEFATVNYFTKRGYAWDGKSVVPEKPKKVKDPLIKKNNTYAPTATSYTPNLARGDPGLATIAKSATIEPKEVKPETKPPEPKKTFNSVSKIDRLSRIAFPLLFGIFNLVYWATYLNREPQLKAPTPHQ
Gamma-aminobutyric acid receptor subunit alpha-1/alpha-2/beta-2/gamma-2, sequence (P47870 whole entry): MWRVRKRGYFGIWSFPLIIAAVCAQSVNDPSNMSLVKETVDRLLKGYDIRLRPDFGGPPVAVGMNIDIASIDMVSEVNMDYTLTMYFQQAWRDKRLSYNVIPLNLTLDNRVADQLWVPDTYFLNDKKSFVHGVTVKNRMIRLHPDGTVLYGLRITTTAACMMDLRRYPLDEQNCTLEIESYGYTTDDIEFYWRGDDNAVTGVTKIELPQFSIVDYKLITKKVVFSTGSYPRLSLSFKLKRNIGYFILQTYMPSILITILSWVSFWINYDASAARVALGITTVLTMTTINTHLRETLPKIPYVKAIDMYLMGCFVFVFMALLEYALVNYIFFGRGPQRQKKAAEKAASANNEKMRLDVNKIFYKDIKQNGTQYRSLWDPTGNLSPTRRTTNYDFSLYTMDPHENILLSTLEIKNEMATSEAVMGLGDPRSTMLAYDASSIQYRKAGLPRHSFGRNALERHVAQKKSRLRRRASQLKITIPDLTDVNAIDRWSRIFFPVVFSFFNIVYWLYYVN
Gamma-aminobutyric acid receptor subunit alpha-1/alpha-2/beta-2/gamma-2, sequence (P18507 whole entry): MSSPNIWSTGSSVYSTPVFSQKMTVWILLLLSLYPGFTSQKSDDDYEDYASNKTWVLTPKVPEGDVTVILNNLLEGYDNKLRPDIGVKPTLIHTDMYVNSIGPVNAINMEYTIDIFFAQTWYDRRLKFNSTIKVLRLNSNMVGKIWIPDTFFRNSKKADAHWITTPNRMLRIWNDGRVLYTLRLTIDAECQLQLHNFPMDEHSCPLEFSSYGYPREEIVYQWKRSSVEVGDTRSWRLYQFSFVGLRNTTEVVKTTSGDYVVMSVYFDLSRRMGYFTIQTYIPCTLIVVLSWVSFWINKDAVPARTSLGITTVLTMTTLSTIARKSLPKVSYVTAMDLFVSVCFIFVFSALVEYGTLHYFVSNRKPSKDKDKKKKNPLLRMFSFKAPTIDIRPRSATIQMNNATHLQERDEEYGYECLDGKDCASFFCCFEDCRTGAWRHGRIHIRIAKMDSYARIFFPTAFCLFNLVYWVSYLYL
Gamma-aminobutyric acid receptor subunit alpha-1/alpha-2/beta-2/gamma-2, sequence (P47869 whole entry): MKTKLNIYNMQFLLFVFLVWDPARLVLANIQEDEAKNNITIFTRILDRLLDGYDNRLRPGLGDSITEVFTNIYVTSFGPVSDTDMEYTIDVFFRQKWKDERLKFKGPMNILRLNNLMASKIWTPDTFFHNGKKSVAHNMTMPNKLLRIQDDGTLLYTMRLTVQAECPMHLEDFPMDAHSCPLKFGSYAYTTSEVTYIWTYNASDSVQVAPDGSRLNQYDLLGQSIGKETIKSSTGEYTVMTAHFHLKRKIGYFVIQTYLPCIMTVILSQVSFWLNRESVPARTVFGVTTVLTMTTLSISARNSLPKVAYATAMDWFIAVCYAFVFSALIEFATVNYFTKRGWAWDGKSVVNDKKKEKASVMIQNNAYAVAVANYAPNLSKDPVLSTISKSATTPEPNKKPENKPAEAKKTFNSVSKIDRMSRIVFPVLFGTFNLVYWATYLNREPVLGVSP
Neurotensin receptor type 1, sequence (P30989 whole entry): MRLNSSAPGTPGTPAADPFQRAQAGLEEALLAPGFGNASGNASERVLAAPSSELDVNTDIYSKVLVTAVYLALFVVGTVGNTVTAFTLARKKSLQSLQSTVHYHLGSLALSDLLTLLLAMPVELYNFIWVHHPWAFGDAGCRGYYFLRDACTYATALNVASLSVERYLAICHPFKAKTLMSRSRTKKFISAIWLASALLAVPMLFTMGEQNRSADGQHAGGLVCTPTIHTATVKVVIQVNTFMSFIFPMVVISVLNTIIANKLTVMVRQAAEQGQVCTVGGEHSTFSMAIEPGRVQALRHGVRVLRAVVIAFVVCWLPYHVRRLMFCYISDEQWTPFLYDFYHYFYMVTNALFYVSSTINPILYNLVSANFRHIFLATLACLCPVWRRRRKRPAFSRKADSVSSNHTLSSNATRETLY
Glucagon receptor, sequence (P47871 whole entry): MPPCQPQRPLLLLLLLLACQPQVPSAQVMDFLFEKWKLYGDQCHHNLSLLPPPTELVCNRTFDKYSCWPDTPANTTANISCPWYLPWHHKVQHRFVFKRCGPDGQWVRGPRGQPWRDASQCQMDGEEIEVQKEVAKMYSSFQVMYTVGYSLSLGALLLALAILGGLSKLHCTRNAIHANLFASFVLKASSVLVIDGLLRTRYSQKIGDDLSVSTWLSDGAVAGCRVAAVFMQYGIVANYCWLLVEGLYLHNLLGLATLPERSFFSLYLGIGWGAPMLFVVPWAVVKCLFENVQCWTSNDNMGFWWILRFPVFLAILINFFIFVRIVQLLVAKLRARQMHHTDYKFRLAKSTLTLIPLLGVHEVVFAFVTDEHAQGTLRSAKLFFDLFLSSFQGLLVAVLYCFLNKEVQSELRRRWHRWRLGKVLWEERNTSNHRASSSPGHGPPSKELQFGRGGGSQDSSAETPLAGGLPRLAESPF
Histamine H2 receptor, sequence (P25021 whole entry): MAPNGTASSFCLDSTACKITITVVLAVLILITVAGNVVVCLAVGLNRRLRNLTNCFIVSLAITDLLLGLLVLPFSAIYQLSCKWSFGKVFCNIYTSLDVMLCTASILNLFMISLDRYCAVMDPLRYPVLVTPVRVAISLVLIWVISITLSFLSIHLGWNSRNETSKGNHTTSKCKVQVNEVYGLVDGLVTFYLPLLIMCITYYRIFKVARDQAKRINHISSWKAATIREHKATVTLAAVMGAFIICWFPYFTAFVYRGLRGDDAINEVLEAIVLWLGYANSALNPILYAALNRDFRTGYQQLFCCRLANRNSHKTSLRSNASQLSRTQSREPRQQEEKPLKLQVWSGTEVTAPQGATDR

| Structure (SMILES) | AC50 (Progesterone receptor) [µM] | AC50 [1] [µM] | AC50 (B1 bradykinin receptor) [µM] | AC50 (Glucagon receptor) [µM] | AC50 [2] [µM] | AC50 [3] [µM] | AC50 [4] [µM] | AC50 (Histamine H2 receptor) [µM] | AC50 [5] [µM] |
| --- | --- | --- | --- | --- | --- | --- | --- | --- | --- |
| CC(N)Cc1ccccc1 (stereo not given) [AMPHETAMINE] | > 30 | > 30 | > 30 | > 30 | > 30 | > 30 | > 30 | – | – |
| N[C@@H](C(=O)N[C@@H]1C(=O)N2C(C(=O)O)=C(Cl)CS[C@H]12)c1ccccc1 [CEFACLOR ANHYDROUS] | – | > 30 | – | – | – | – | > 30 | – | – |
| COC(=O)[C@@H]1CC2=CC(=O)CC[C@]2(C)[C@@]23O[C@@H]2C[C@@]2(C)[C@@H](CC[C@@]24CCC(=O)O4)[C@H]13 [EPLERENONE] | – | > 30 | > 30 | > 30 | > 30 | > 30 | > 30 | > 10 | – |
| CC(C)Cc1ccc(CC(=O)O)cc1 [IBUFENAC] | – | > 30 | – | – | – | – | > 30 | – | – |
| NC(=O)c1ncn([C@@H]2O[C@H](CO)[C@@H](O)[C@H]2O)c1O [MIZORIBINE] | – | > 30 | – | – | – | – | > 30 | – | – |
| OCCN1CCN(CCCN2c3ccccc3C=Cc3ccccc32)CC1 [OPIPRAMOL] | – | > 30 | – | – | – | – | > 30 | – | 1.41 |
| OCc1cc([C@@H](O)CNCCCCCCOCCOCc2c(Cl)cccc2Cl)ccc1O [VILANTEROL] | – | > 30 | – | – | – | – | > 30 | – | – |
